Like-named read-outs stand apart in the source and are kept apart here.
Columns and labels:
[1] = tested on: human lung cancer strain NCI-H441; experiment: NCI-H441 cell proliferation inhibitory activity (CellTiter-Glo, 4 days); format: cell-based; conditions: read-out: NCl-H441 IC50
Method in brief: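 Readout: […] after the ATP-based reagent. Compound: serial dilutions in dimethyl sulfoxide.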

[2] = target: HRAS wild-type protein (Homo sapiens, UniProt P01112); experiment: Binding to HRAS by surface plasmon resonance (SPR), KD and KD ratio to KRAS
Chain of HRAS wild-type protein (P01112 whole entry): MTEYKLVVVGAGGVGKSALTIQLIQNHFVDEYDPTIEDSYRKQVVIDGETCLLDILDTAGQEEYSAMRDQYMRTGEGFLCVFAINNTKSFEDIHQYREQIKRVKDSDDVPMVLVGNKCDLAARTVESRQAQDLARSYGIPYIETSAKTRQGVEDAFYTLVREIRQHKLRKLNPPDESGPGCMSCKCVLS
Method in brief: (§1)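 GDP-bound biotin-Avi RAS captured at ~100–300 RU, 30°C, pH 7.4 HBS containing 10 µM GDP, 10 mM MgCl2, 1 mM DTT, 0.01% Tween 20 and 4% DMSO. KD by 1:1 fitting.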

[3] = target: GDP-bound NRAS wild-type protein (Homo sapiens, UniProt P01111); experiment: Binding to NRAS by surface plasmon resonance (SPR), KD and KD ratio to KRAS
Chain of GDP-bound NRAS wild-type protein (P01111 whole entry): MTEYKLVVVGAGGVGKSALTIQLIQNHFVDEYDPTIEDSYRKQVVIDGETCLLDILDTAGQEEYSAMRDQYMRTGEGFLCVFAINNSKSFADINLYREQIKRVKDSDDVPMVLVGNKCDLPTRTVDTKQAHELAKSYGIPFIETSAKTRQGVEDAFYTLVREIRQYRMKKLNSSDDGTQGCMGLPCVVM
Method in brief: as §1

[4] = target: GDP-bound KRAS wild-type protein (Homo sapiens, UniProt P01116); experiment: Binding to KRAS by surface plasmon resonance (SPR), dissociation constant KD
Chain of GDP-bound KRAS wild-type protein (P01116 1-188 isoform P01116-2): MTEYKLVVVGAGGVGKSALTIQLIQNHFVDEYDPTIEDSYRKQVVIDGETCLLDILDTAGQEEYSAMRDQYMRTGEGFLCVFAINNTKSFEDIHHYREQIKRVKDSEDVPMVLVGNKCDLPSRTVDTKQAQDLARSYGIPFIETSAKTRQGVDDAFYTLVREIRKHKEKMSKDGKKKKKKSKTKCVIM
Method in brief: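 Captured GDP-RAS (~100–300 RU) was exposed to increasing compound concentrations, 75 s per step, in running buffer with 10 µM GDP, 10 mM MgCl2 and 4% DMSO at pH 7.4.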

[5] = ratio of KD for HRAS wild-type protein to KD for KRAS
[6] = ratio of KD for GDP-bound NRAS wild-type protein to KD for KRAS
[7] = 50% proliferation inhibitory concentration, four days
[8] = ratio of KD with respect to HRAS wild-type protein to KD with respect to KRAS
[9] = ratio of KD with respect to GDP-bound NRAS wild-type protein to KD with respect to KRAS
[10] = Single Cycle Kinetics, 1:1 binding model

Row | SMILES | IC50 ([1]; NCI-H441 cells, 4 days) [nM] | HRAS /KRAS [2, 5] | NRAS /KRAS [3, 6] | Kd ([4]; 1:1 binding model) [nM] | Kd ([4]; Single Cycle Kinetics) [nM] | IC50 [1, 7] [nM] | HRAS /KRAS [2, 8] | NRAS /KRAS [3, 9] | Kd [4, 10] [nM]
1 | CCCOC[C@H]1C(=O)N[C@@H]([C@@H](C)CC)C(=O)N(C2CC2)CC(=O)N(C)[C@H]2C/C=C\CCN(C2=O)[C@@H](Cc2ccc(C)cc2)C(=O)N(C)CC(=O)N[C@@H](CCc2ccc(C(F)(F)F)c(OC)c2)C(=O)N2C[C@@H](C)C[C@H]2C(=O)N(C)C2(CCC2)C(=O)N(C)[C@@H](C2CCCC2)C(=O)N(C)[C@H](C(=O)N(C)C)CC(=O)N1C [PP2367] | 2.1 | B (a compound having 3 or more and less than 10 is denoted as B) | A (a compound having 10 or more and less than 20 is denoted as A) | 0.075 | – | – | – | – | –
2 | CCO[C@@H]1C[C@H]2C(=O)NC3(CC(C)(C)C3)C(=O)N(C)[C@@H](C3CCCC3)C(=O)N(C)[C@H](C(=O)N(CC)CC)CC(=O)N(C)[C@@H](COC)C(=O)N[C@@H]([C@@H](C)CC)C(=O)N(C)CC(=O)N(C)[C@H]3C/C=C\CCN(C3=O)[C@@H](Cc3ccc(C)cc3)C(=O)N(C)CC(=O)N[C@@H](CCc3cc(F)c(C(F)(F)F)c(F)c3)C(=O)N2C1 [PP2403] | 7.2 | A (a compound having 10 or more and less than 20 is denoted as A) | A (a compound having 10 or more and less than 20 is denoted as A) | 0.22 | – | – | – | – | –
3 | CCCOC[C@@H]1NC(=O)C[C@@H](C(=O)N(C)CCC)N(C)C(=O)[C@H](C2CCCC2)N(C)C(=O)C2(CC(C)(C)C2)NC(=O)[C@@H]2C[C@@H](OCC)CN2C(=O)[C@H](CCc2ccc(C(F)(F)F)c(OC)c2)NC(=O)CN(C)C(=O)[C@H](Cc2ccc(C(F)(F)F)cc2)N2CC/C=C\C[C@@H](C2=O)N(C)C(=O)CN(C)C(=O)[C@H]([C@@H](C)CC)NC1=O [PP3449] | 31.9 | A (a compound having 10 or more and less than 20 is denoted as A) | A (a compound having 10 or more and less than 20 is denoted as A) | – | 0.25 | – | – | – | –
4 | CCO[C@@H]1C[C@H]2C(=O)NC3(CCC3)C(=O)N(C)[C@@H](C3CCCC3)C(=O)N(C)[C@H](C(=O)N(C)C)CC(=O)N(C)[C@@H](Cc3ccc(Cl)c(Cl)c3)C(=O)N[C@@H]([C@@H](C)CC)C(=O)N(C)CC(=O)N(C)[C@H]3CCCCCN(C3=O)[C@@H](Cc3ccc(F)cc3)C(=O)N(C)CC(=O)N[C@@H](CCc3cc(F)c(C(F)(F)F)c(F)c3)C(=O)N2C1 [PP1158] | – | – | – | – | – | 57.5 | B (a compound having 3 or more and less than 10 is denoted as B) | B (a compound having 3 or more and less than 10 is denoted as B) | 0.18
5 | CCO[C@@H]1C[C@H]2C(=O)NC3(CCC3)C(=O)N(C)[C@@H](C(CC)CC)C(=O)N(C)[C@H](C(=O)N3CCOCC3)CC(=O)N(C)[C@@H](CC)C(=O)N[C@@H]([C@@H](C)CC)C(=O)N(C)CC(=O)N(C)[C@H]3C/C=C\CCN(C3=O)[C@@H](Cc3ccc(C(F)(F)F)cc3)C(=O)N(C)CC(=O)N[C@@H](CCc3cc(F)c(C(F)(F)F)c(F)c3)C(=O)N2C1 [PP1286] | – | – | – | – | – | 58.8 | A (a compound having 10 or more and less than 20 is denoted as A) | AA (a compound having 20 or more is denoted as AA) | 0.65
6 | CCO[C@@H]1C[C@H]2C(=O)OC3(CCC3)C(=O)N(C)[C@@H](C3CCCC3)C(=O)N(C)[C@H](C(=O)N(C)C)CC(=O)N(C)[C@@H]([C@H](C)OC)C(=O)N[C@@H]([C@@H](C)CC)C(=O)N(C3CC3)CC(=O)N(C)[C@H]3C/C=C\CCN(C3=O)[C@@H](Cc3ccc(C(F)(F)F)cc3)C(=O)N(C)CC(=O)N[C@@H](CCc3ccc(C(F)(F)F)c(OC)c3)C(=O)N2C1 [PP3378] | 11.6 | A (a compound having 10 or more and less than 20 is denoted as A) | A (a compound having 10 or more and less than 20 is denoted as A) | – | 1.3 | – | – | – | –
7 | CCOC[C@H]1C(=O)N[C@@H]([C@@H](C)CC)C(=O)N(C)CC(=O)N(C)[C@H]2C/C=C\CCN(C2=O)[C@@H](CC2CCC(F)(F)CC2)C(=O)N(C)CC(=O)N[C@@H](CCc2cc(F)c(C(F)(F)F)c(F)c2)C(=O)N2C[C@H](OCC)C[C@H]2C(=O)NC2(CC(C)(C)C2)C(=O)N(C)[C@@H](C(CC)CC)C(=O)N(C)[C@H](C(=O)N(C)C)CC(=O)N1C [PP2450] | 29.2 | A (a compound having 10 or more and less than 20 is denoted as A) | A (a compound having 10 or more and less than 20 is denoted as A) | 0.55 | – | – | – | – | –
8 | CCCO[C@H](C)[C@@H]1NC(=O)[C@H](CC(C)C)N(C)C(=O)C[C@@H](C(=O)N(C)C)N(C)C(=O)[C@H](C2CCCC2)N(C)C(=O)C2(CC(C)(C)C2)NC(=O)[C@@H]2C[C@H](C)CN2C(=O)[C@H](CCc2ccc(C(F)(F)F)c(OC)c2)NC(=O)CN(C)C(=O)[C@H](Cc2ccc(C)cc2)N2CC/C=C\C[C@@H](C2=O)N(C)C(=O)CN(C)C1=O [PP2415] | 10.3 | A (a compound having 10 or more and less than 20 is denoted as A) | AA (a compound having 20 or more is denoted as AA) | 0.093 | – | – | – | – | –
9 | CCOC[C@H]1C(=O)N[C@@H]([C@@H](C)CC)C(=O)N2CCC[C@H]2C(=O)N(C)[C@H]2C/C=C\CCN(C2=O)[C@@H](Cc2ccc(C)cc2)C(=O)N(C)CC(=O)N[C@@H](CCc2ccc(C(F)(F)F)c(OC)c2)C(=O)N2C[C@@H](C)C[C@H]2C(=O)NC2(CC(C)(C)C2)C(=O)N(C)[C@@H](C2CCCC2)C(=O)N(C)[C@H](C(=O)N(C)CC)CC(=O)N1C [PP2427] | 36.6 | A (a compound having 10 or more and less than 20 is denoted as A) | AA (a compound having 20 or more is denoted as AA) | 0.7 | – | – | – | – | –
10 | CCO[C@@H]1C[C@H]2C(=O)NC3(CC(C)(C)C3)C(=O)N(C)[C@@H](C3CCCC3)C(=O)N(C)[C@H](C(=O)N(C)C)CC(=O)N[C@@H](CC(C)C)C(=O)N[C@@H]([C@@H](C)CC)C(=O)N(C)CC(=O)N(C)[C@H]3C/C=C\CCN(C3=O)[C@@H](Cc3ccc(C(F)(F)F)cc3)C(=O)N(C)CC(=O)N[C@@H](CCc3ccc(C(F)(F)F)c(Cl)c3)C(=O)N2C1 [PP3452] | 14.5 | A (a compound having 10 or more and less than 20 is denoted as A) | A (a compound having 10 or more and less than 20 is denoted as A) | – | 0.19 | – | – | – | –
11 | CCO[C@@H]1C[C@H]2C(=O)NC3(CCC3)C(=O)N(C)[C@@H](C3CCCC3)C(=O)N(C)[C@H](C(=O)N(C)C)CC(=O)N(C)[C@@H](CC3CCCC3)C(=O)N[C@@H]([C@@H](C)CC)C(=O)N(C)CC(=O)N(C)[C@H]3C/C=C\CCN(C3=O)[C@@H](Cc3ccc(C(F)(F)F)cc3)C(=O)N(C)CC(=O)N[C@@H](CCc3ccc(C(F)(F)F)c(OC)c3)C(=O)N2C1 [PP1248] | – | – | – | – | – | 7.3 | A (a compound having 10 or more and less than 20 is denoted as A) | A (a compound having 10 or more and less than 20 is denoted as A) | 0.069
12 | CCC[C@H]1C(=O)N[C@@H]([C@@H](C)CC)C(=O)N(C)CC(=O)N(C)[C@H]2C/C=C\CCN(C2=O)[C@@H](Cc2ccc(C(F)(F)F)cc2)C(=O)N(C)CC(=O)N[C@@H](CCc2ccc(C(F)(F)F)c(OC)c2)C(=O)N2CC3(CC3)C[C@H]2C(=O)NC2(CCC2)C(=O)N(C)[C@@H](C2CCCC2)C(=O)N(C)[C@H](C(=O)N(C)C)CC(=O)N1C [PP3438] | 8.9 | A (a compound having 10 or more and less than 20 is denoted as A) | A (a compound having 10 or more and less than 20 is denoted as A) | – | 0.062 | – | – | – | –
